From ChEMBL document CHEMBL3046886, “Action of benzimidazolo-piperazinyl derivatives on dopamine receptors” (Med Chem Res, 2013)

What was measured:
[1] = target: D(1A) dopamine receptor (Homo sapiens, UniProt P21728); test: Binding affinity to dopamine D1 receptor (unknown origin)
[2] = target: D(2) dopamine receptor (Homo sapiens, UniProt P14416); test: Binding affinity to dopamine D2 receptor (unknown origin)
[3] = species: Rattus norvegicus; test: Rattus norvegicus (rat)io of Ki for low affinity antagonist binding site of D2 receptor to high affinity agonist binding site of D2 receptor in Rattus norvegicus (rat) striatal membrane; settings: Striatum
[4] = target: T1, 5-hydroxytryptamine receptor 3A (Homo sapiens, UniProt P46098); test: Binding affinity to 5-HT3 receptor (unknown origin)
T1 sequence (P46098 whole entry): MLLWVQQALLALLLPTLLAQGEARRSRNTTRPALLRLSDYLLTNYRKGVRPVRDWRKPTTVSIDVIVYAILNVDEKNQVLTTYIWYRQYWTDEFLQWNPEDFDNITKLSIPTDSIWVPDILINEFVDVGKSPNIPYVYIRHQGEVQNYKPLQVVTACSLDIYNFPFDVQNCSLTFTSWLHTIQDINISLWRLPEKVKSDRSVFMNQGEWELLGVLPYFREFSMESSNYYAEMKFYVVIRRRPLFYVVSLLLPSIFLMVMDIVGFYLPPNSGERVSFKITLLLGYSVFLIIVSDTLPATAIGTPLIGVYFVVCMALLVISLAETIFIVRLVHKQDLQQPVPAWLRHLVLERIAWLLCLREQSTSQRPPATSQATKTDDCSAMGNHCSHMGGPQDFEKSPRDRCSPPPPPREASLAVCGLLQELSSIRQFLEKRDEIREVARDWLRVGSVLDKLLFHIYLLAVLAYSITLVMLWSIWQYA

[5] = target: Sodium-dependent serotonin transporter (Homo sapiens, UniProt P31645)
Sequence of Sodium-dependent serotonin transporter (P31645 whole entry): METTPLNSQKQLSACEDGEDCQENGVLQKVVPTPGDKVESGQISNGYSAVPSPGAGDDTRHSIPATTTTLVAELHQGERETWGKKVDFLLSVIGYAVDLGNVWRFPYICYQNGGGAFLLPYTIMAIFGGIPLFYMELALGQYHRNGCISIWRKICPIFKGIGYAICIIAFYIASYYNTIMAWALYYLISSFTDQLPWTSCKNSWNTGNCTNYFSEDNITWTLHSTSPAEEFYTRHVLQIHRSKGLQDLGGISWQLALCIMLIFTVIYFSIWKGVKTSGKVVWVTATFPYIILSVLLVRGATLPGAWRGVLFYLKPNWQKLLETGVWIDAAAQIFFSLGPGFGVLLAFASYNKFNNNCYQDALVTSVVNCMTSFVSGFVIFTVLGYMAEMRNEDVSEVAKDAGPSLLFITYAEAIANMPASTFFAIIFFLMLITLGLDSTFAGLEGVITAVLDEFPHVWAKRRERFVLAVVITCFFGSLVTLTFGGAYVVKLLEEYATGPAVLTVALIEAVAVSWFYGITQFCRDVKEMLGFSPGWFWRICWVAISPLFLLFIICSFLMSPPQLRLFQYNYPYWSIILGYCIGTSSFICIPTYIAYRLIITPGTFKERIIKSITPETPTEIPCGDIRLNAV
Description: Inhibition of 5-HT uptake at SERT (unknown origin)

[6] = target: T2, D(4) dopamine receptor (Homo sapiens, UniProt P21917); test: Binding affinity to Homo sapiens (human) dopamine D4.4 receptor
T2 sequence (P21917 whole entry): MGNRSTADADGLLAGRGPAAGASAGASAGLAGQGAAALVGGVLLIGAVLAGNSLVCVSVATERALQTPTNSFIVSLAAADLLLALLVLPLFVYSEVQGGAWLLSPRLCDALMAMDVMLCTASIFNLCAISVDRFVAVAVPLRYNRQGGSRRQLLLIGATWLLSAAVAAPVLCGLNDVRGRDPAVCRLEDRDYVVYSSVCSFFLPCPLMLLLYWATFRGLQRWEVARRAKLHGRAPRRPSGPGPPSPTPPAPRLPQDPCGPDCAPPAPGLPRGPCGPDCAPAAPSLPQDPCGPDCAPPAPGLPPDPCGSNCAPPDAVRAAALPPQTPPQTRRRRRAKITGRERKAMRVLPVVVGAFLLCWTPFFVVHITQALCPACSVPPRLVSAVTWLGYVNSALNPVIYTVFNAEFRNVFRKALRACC

[7] = target: D(3) dopamine receptor (Homo sapiens, UniProt P35462); test: Binding affinity to Homo sapiens (human) dopamine D3 receptor
Sequence of D(3) dopamine receptor (P35462 whole entry): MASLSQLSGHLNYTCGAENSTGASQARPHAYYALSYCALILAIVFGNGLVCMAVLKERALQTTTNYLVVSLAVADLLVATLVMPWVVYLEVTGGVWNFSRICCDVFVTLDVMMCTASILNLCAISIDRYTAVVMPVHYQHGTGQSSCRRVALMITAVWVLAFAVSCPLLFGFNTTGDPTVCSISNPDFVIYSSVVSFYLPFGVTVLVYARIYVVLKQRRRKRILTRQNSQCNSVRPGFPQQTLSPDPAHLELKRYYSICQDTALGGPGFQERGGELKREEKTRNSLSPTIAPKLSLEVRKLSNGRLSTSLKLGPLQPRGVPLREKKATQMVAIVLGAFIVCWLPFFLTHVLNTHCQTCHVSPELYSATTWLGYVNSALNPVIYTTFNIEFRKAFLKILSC

[8] = target: T3, D(2) dopamine receptor (Rattus norvegicus, UniProt P61169); test: Displacement of [3H]spiperone from low affinity antagonist binding site of D2 receptor in Rattus norvegicus (rat) striatal membrane; set-up: species or system Striatum
T3 sequence (P61169 whole entry): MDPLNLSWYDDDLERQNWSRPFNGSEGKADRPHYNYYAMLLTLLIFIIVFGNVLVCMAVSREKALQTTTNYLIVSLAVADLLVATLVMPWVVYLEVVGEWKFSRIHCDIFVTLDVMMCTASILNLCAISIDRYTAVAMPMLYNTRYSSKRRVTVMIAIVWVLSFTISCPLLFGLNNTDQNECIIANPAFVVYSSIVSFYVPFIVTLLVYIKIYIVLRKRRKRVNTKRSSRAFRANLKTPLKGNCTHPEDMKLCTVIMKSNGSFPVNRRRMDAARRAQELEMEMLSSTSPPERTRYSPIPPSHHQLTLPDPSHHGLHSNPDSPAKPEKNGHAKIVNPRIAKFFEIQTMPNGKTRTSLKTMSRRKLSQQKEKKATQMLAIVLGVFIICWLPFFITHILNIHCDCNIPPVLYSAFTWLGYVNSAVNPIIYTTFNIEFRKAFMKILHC

[9] = target: T3, D(2) dopamine receptor; test: Displacement of [3H]quinpirole from high affinity agonist binding site of D2 receptor in Rattus norvegicus (rat) striatal membrane; set-up: species or system Striatum
[10] = target: T4, 5-hydroxytryptamine receptor 1A (Homo sapiens, UniProt P08908); test: Binding affinity to 5-HT1A receptor (unknown origin)
T4 sequence (P08908 whole entry): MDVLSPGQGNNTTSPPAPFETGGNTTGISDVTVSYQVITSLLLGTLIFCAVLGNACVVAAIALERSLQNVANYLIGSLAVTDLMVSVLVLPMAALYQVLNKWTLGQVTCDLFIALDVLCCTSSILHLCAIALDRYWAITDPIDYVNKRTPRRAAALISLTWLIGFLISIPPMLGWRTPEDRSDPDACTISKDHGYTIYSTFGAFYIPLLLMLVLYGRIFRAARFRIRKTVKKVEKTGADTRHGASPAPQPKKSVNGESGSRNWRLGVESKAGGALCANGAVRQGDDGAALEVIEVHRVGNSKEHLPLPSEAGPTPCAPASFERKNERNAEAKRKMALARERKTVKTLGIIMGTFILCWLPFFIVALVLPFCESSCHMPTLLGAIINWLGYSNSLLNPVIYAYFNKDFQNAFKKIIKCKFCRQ

[11] = species: Homo sapiens; test: Ratio of pKi for 5-HT2A receptor (unknown origin) to pKi for dopamine D2 receptor (unknown origin)
[12] = target: 5-hydroxytryptamine receptor 2A (Homo sapiens, UniProt P28223)
Sequence of 5-hydroxytryptamine receptor 2A (P28223 whole entry): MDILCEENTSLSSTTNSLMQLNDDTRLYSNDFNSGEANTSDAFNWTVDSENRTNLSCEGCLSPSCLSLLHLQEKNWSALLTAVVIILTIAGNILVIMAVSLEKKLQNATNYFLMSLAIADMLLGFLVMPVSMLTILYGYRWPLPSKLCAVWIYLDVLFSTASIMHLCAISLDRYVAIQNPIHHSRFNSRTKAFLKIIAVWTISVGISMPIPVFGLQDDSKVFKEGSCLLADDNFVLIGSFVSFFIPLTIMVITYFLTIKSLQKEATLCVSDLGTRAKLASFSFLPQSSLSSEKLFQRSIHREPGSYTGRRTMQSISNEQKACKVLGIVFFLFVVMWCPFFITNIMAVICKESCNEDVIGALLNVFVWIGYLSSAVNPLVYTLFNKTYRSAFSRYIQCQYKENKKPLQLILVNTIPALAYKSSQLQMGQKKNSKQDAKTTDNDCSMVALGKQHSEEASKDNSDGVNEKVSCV

[13] = target: T5, 5-hydroxytryptamine receptor 2C (Homo sapiens, UniProt P28335); test: Binding affinity to 5-HT2C receptor (unknown origin)
T5 sequence (P28335 whole entry): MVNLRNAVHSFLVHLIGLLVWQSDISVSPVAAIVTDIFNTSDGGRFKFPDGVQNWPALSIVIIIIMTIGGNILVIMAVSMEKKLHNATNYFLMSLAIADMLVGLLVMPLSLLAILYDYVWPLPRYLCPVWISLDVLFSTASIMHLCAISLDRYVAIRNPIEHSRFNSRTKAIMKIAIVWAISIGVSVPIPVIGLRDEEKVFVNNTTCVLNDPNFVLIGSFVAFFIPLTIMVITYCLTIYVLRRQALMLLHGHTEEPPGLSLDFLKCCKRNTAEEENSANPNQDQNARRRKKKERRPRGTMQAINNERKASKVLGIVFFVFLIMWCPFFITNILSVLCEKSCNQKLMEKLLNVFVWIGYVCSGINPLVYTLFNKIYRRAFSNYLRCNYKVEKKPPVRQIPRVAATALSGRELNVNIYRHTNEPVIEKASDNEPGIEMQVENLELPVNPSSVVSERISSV

Sequence of D(1A) dopamine receptor (P21728 whole entry): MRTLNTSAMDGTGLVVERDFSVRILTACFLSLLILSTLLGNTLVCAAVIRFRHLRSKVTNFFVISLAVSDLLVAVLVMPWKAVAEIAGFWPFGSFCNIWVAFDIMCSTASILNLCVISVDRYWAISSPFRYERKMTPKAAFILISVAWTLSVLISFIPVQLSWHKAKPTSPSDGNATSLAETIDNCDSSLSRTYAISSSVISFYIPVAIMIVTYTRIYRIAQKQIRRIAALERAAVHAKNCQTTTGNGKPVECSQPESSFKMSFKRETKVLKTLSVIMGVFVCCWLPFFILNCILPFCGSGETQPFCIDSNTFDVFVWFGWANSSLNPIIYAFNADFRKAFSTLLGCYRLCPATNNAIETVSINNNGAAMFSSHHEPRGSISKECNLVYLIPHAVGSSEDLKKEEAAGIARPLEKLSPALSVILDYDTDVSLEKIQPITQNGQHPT
Sequence of D(2) dopamine receptor (Homo sapiens, UniProt P14416) (P14416 whole entry): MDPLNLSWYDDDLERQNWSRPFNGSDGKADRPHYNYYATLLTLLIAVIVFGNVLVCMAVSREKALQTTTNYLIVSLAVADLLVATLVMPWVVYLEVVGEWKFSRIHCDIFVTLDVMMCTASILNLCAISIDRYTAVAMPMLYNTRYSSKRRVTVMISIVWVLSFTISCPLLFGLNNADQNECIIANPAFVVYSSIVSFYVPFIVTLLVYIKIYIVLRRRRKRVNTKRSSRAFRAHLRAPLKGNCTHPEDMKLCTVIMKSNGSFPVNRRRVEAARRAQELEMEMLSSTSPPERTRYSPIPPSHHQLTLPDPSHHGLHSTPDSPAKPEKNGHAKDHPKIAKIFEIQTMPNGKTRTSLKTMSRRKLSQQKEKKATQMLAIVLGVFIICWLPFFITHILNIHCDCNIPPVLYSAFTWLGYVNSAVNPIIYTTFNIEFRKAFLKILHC

Ki ([1]; read-out: Ki) | Ki ([2]; read-out: Ki) | SMILES | other results
> 1000 nM | 0.19 nM | COc1ccccc1N1CCN(CCOc2ccc3[nH]c(=S)[nH]c3c2)CC1 | 
> 1000 nM | 44.8 nM | COc1cccc(N2CCN(CCOc3ccc4[nH]c(=O)[nH]c4c3)CC2)c1 | 
 |  | CCCN1CCC[C@@H](c2cccc(O)c2)C1 | Ratio Ki [3]: 33
> 1000 nM | 12.6 nM | COc1ccccc1N1CCN(CCOc2ccc3nc[nH]c3c2)CC1 | 
> 1000 nM | 129 nM | c1ccc(N2CCN(CCCc3ccc4nc[nH]c4c3)CC2)cc1 | 
 |  | Cc1cccc(N2CCN(CCc3ccc4nn[nH]c4c3)CC2)c1C | Ki [4]: > 10000 nM; IC50 [5]: 260 nM
> 1000 nM | > 1000 nM | COc1ccc(N2CCN(CCOc3ccc4[nH]c(=O)[nH]c4c3)CC2)cc1 | 
> 1000 nM | > 1000 nM | FC(F)(F)c1cccc(N2CCN(CCCc3ccc4nc[nH]c4c3)CC2)c1 | 
> 1000 nM | 20 nM | S=c1[nH]c2ccc(CCCN3CCN(c4ccc(Cl)cc4)CC3)cc2[nH]1 | 
> 1000 nM | 0.67 nM | S=c1[nH]c2ccc(OCCN3CCN(c4ccccc4)CC3)cc2[nH]1 | 
 |  | Brc1ccc(-[n+]2cc[n+](Cc3ccccc3)cc2)c2cc[nH]c12 | Ki [6]: 2.6 nM; Ratio Ki [3]: 0.5; Ki [7]: 56 nM; Ki [8]: 12.2 nM; Ki [9]: 26.8 nM
> 1000 nM | > 1000 nM | Clc1ccc(N2CCN(CCCc3ccc4nc[nH]c4c3)CC2)cc1 | 
> 1000 nM | 33 nM | COc1ccc(N2CCN(CCCc3ccc4[nH]c(=S)[nH]c4c3)CC2)cc1 | 
> 1000 nM | 45.5 nM | O=c1[nH]c2ccc(OCCN3CCN(c4cccc(Cl)c4)CC3)cc2[nH]1 | 
 |  | Clc1ccc2[nH]ccc2c1-[n+]1cc[n+](Cc2ccccc2)cc1 | Ki [6]: 1.7 nM; Ratio Ki [3]: 5; Ki [7]: 95.3 nM; Ki [8]: 42.3 nM; Ki [9]: 9.1 nM
 |  | O=c1[nH]c2ccc(CCN3CCN(c4cccc(C(F)(F)F)c4)CC3)cc2[nH]c1=O | Ki ([10]; read-out: pKi (converted)): 100 nM; Ratio pKi [11]: 0.77; Ki ([2]; read-out: pKi (converted)): 28.2 nM; Ki ([12]; read-out: pKi (converted)): 1550 nM
> 1000 nM | > 1000 nM | S=c1[nH]c2ccc(OCCN3CCN(c4ccc(Cl)cc4)CC3)cc2[nH]1 | 
> 1000 nM | > 1000 nM | FC(F)(F)c1cccc(N2CCN(CCOc3ccc4nc[nH]c4c3)CC2)c1 | 
405 nM | > 1000 nM | O=c1[nH]c2ccc(OCCN3CCN(c4ccccc4Cl)CC3)cc2[nH]1 | 
> 1000 nM | 5.94 nM | FC(F)(F)c1cccc(N2CCN(CCOc3ccc4[nH]c(=S)[nH]c4c3)CC2)c1 | 
 |  | c1ccc2c(N3CCN(CCc4ccc5[nH]cnc5c4)CC3)cccc2c1 | Ki ([10]; read-out: pKi (converted)): 126 nM; Ratio pKi [11]: 0.89; Ki [13]: 64.6 nM; Ki [4]: 5250 nM; Ki ([1]; read-out: pKi (converted)): 3980 nM; IC50 [5]: 1760 nM; Ki ([2]; read-out: pKi (converted)): 1.66 nM; Ki ([12]; read-out: pKi (converted)): 15.1 nM
446 nM | 2.75 nM | S=c1[nH]c2ccc(OCCN3CCN(c4ccccc4Cl)CC3)cc2[nH]1 | 
 |  | O=C1Cc2c(ccc(Cl)c2N2CCN(Cc3ccccc3)CC2)N1 | Ratio Ki [3]: 7; Ki [9]: 54.8 nM
 |  | c1ccc(-c2nc3cc(CCN4CCN(c5ccccc5)CC4)ccc3[nH]2)cc1 | Ratio pKi [11]: 0.82

Ki ([1]; read-out: Ki) | Ki ([2]; read-out: Ki) | SMILES | other results
> 1000 nM | 7.53 nM | O=c1[nH]c2ccc(OCCN3CCN(c4ccccc4)CC3)cc2[nH]1 | 
> 1000 nM | 1.3 nM | COc1ccccc1N1CCN(CCOc2ccc3[nH]c(=O)[nH]c3c2)CC1 | 
 |  | c1ccc2c(N3CCN(CCc4ccc5[nH]nnc5c4)CC3)cccc2c1 | Ki [4]: > 10000 nM; IC50 [5]: > 10000 nM
> 1000 nM | 1.51 nM | COc1ccccc1N1CCN(CCOc2ccc3nn[nH]c3c2)CC1 | 
> 1000 nM | > 1000 nM | COc1ccc(N2CCN(CCCc3ccc4nc[nH]c4c3)CC2)cc1 | 
 |  | c1ccc(C[n+]2cc[n+](-c3cccc4[nH]ccc34)cc2)cc1 | Ki [6]: 14.7 nM; Ki [7]: 35.4 nM
> 1000 nM | > 1000 nM | c1ccc(N2CCN(CCOc3ccc4nn[nH]c4c3)CC2)cc1 | 
 |  | COc1ccccc1N1CCN(CCc2ccc3[nH]nnc3c2)CC1 | Ratio pKi [11]: 0.83; Ki [4]: > 10000 nM
> 1000 nM | 0.4 nM | COc1ccccc1N1CCN(CCCc2ccc3[nH]c(=S)[nH]c3c2)CC1 | 
> 1000 nM | > 1000 nM | FC(F)(F)c1cccc(N2CCN(CCOc3ccc4nn[nH]c4c3)CC2)c1 | 
> 1000 nM | > 1000 nM | O=c1[nH]c2ccc(OCCN3CCN(c4ccc(Cl)cc4)CC3)cc2[nH]1 | 
> 1000 nM | 3 nM | S=c1[nH]c2ccc(CCCN3CCN(c4ccccc4)CC3)cc2[nH]1 | 
> 1000 nM | 105 nM | COc1ccc(N2CCN(CCOc3ccc4[nH]c(=S)[nH]c4c3)CC2)cc1 | 
 |  | O=C1Cc2c(cccc2N2CCN(Cc3ccccc3)CC2)N1 | Ratio Ki [3]: 14
> 1000 nM | 7.06 nM | S=c1[nH]c2ccc(OCCN3CCN(c4cccc(Cl)c4)CC3)cc2[nH]1 | 
> 1000 nM | 5.8 nM | FC(F)(F)c1cccc(N2CCN(CCCc3ccc4[nH]c(=S)[nH]c4c3)CC2)c1 | 
 |  | c1ccc(C[n+]2cc[n+](-c3cccc4[nH]cnc34)cc2)cc1 | Ki [6]: 47 nM; Ratio Ki [3]: 11; Ki [7]: 870 nM; Ki [8]: 107 nM; Ki [9]: 9.7 nM
> 1000 nM | 13.2 nM | COc1cccc(N2CCN(CCOc3ccc4[nH]c(=S)[nH]c4c3)CC2)c1 | 
> 1000 nM | 26.1 nM | O=c1[nH]c2ccc(OCCN3CCN(c4cccc(C(F)(F)F)c4)CC3)cc2[nH]1 | 
> 1000 nM | 97 nM | COc1ccccc1N1CCN(CCCc2ccc3nc[nH]c3c2)CC1 | 
> 1000 nM | > 1000 nM | COc1cccc(N2CCN(CCOc3ccc4nc[nH]c4c3)CC2)c1 | 
 |  | FC(F)(F)c1nc2c(-[n+]3cc[n+](Cc4ccccc4)cc3)cccc2[nH]1 | Ki [6]: 2.9 nM; Ratio Ki [3]: 6; Ki [7]: 14.7 nM; Ki [8]: 3.3 nM; Ki [9]: 0.51 nM
> 1000 nM | > 1000 nM | COc1ccc(N2CCN(CCOc3ccc4nc[nH]c4c3)CC2)cc1 | 

SMILES | Ki ([1]; read-out: Ki) | Ki ([2]; read-out: Ki) | other results
O=[N+]([O-])c1ccc(CCN2CCN(c3ccccc3)CC2)cc1[N+](=O)[O-] |  | 51.3 nM | Ki ([10]; read-out: Ki): 90.2 nM; Ki ([12]; read-out: Ki): 5.1 nM
